Experimental data from patent publication US12428370B2, “Haloallylamine dual amine oxidase inhibitors” (Syntara Limited, priority 2020, dated 2025).
Counter-ions that a name gives are not always drawn.

What was measured:
[1] = molecular target: T1, Rat Adipose Tissue SSAO/VAP-1 (Rattus norvegicus, UniProt O08590); test: Rat adipose tissue SSAO/VAP-1 activity after oral administration; type: in vivo, Sprague Dawley rats; settings: single oral dose 0.6 mg/kg, Sprague Dawley rat adipose tissue, FIG. 2
T1 construct: Adipose tissue was homogenized in ice-cold HES buffer; from tissue; host or cells: gonadal fat of Sprague Dawley rats (homogenate supernatant)
T1 sequence (O08590 1-763): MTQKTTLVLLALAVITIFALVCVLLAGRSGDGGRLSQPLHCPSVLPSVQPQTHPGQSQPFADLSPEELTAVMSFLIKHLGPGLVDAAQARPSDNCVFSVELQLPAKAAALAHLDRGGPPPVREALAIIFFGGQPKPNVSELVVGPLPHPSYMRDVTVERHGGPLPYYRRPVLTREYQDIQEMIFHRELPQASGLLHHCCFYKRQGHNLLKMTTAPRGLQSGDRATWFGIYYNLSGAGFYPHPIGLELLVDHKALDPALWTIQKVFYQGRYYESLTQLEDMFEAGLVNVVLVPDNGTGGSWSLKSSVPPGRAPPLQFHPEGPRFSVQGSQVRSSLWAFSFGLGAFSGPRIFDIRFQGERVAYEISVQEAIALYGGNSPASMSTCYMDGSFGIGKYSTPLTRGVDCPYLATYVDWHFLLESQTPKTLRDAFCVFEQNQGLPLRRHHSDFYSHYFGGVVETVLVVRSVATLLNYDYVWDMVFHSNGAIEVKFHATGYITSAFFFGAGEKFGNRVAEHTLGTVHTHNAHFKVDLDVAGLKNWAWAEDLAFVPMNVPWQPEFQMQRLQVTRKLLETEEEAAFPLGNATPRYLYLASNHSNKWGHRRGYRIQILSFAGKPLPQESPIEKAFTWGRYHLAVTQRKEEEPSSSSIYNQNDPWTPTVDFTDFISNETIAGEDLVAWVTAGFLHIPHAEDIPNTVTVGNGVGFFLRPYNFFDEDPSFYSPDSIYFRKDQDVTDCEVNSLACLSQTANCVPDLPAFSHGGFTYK
Protocol: Sprague Dawley rats were orally administered the compound under study and sacrificed at various time points and gonadal fat and brain tissue collected.
Adipose tissue was homogenized in ice-cold HES buffer (20 mM HEPES, 1 mM EDTA, sucrose 250 mM, proteases and phosphatases inhibitor, pH 7.4). Homogenate was then centrifuged at 2000 rpm for 5 minutes at 4° C. and the resultant supernatant portion (minus the lipid top layer) used for assay. SSAO/VAP-1 activity was determined by using a non-specific MAO inhibitor (e.g. pargyline) to establish the high signal and a mixture of non-specific MAO inhibitor and an SSAO/VAP-1 inhibitor (e.g. semicarbazide) to determine the low signal.
Activity of the treated samples was analyzed using the fluorometric method described in EXAMPLE 9 for SSAO/VAP-1 activity and EXAMPLE 10 for MAO-B.

[2] = test system: mdx mice (C57BL/10ScSn-Dmdmdx/J); test: Mouse model of Duchenne muscular dystrophy, Compound 1; type: in vivo; settings: 4.8 mg/kg/day oral
Protocol: Three-months old mdx mice (C57BL/10ScSn-Dmdmdx/J) received daily doses of Compound 1 (in a range of 1-6 mg/kg) administered in the drinking water for thirty days. Untreated, age-matched animals were used as controls. A second cohort of mice aged 10 months-old received daily doses of Compound 1 (in a range of 1-6 mg/kg) administered in the drinking water for ninety days. Untreated, age-matched animals were used as controls.
After the end of each treatment period, animals were sacrificed by cervical dislocation and the skeletal muscle and the heart (minus the atria) collected, flash-frozen in isopentane pre-cooled with liquid nitrogen and stored at −80° C. 12 μm sections from the diaphragm muscle were prepared with a cryotome; multiple serial slides were prepared, containing sections from at least three different levels. The same procedure was used to prepare heart transverse sections.
The amount of the neutrophil and macrophage infiltration, reactive oxygen species (ROS) present and the percentage of fibrotic tissue, was determined as described in EXAMPLE 17.

[3] = molecular target: T2, Muscle and Heart Tissue MAO-B (Mus musculus, UniProt Q8BW75); test: Mouse muscle and heart tissue MAO-B activity after oral administration; type: in vivo; settings: for MAO-B activity in heart and muscle tissue: C57BL/6J mice, single oral dose, FIG. 8
T2 construct: Skeletal muscle was pulverized in liquid nitrogen and then suspended in ice-cold HEPES buffered media; from tissue; host or cells: skeletal muscle and heart of C57BL/6J and mdx mice (mitochondrial extract)
T2 sequence (Q8BW75 1-520): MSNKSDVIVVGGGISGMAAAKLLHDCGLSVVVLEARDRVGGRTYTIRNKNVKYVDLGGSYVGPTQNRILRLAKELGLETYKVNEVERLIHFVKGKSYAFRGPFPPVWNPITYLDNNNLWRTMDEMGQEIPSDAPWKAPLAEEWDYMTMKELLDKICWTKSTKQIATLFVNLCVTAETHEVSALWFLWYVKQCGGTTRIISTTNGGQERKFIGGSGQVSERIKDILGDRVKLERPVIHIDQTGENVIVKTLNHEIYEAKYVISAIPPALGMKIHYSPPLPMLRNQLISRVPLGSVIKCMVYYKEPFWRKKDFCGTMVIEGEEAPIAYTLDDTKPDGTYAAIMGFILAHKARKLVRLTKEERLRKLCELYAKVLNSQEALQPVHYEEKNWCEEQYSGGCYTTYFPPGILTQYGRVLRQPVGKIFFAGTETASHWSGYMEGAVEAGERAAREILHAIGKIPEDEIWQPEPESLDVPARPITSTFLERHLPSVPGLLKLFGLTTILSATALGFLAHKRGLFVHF
Protocol: Mice were orally administered the compound under study and sacrificed at various time points and abdominal fat, muscle and heart tissue collected.
Skeletal muscle was pulverized in liquid nitrogen and then suspended in ice-cold HEPES buffered media (20 mM HEPES, 0.8% w/v free-fatty acid bovine serum albumin (BSA), 75 mM sucrose, 10 mM EDTA, 215 mM D-mannitol, pH 7.4). Homogenized and then centrifuged at 2,500 rpm for 10 minutes at 4° C. Supernatant transferred and centrifuged at 10,000 rpm for 8 minutes. Supernatant discarded and the resultant pellet containing the mitochondrial extract re-suspended in 0.1 M sodium phosphate buffer solution (1:3 ratio).
Heart muscle was washed with PBS solution three times over ice. Homogenate and extract was then prepared as described for the skeletal muscle.
MAO-B activity was determined by using a specific MAO-A inhibitor (e.g. clorgyline) and an SSAO/VAP-1 inhibitor (e.g. semicarbazide) to establish the high signal. Low signal was established as for the adipose tissue assay (EXAMPLE 13).
Activity of the treated samples was analyzed using the fluorometric method described in EXAMPLE 9 for SSAO/VAP-1 activity, EXAMPLE 10 for MAO-B and EXAMPLE 11 for MAO-A activity (FIG. 8 and FIG. 9).

| SMILES | duration of inhibition of SSAO/VAP-1 enzyme activity [1] | cardiac fibrosis (picrosirius red staining in the heart muscle) ([2]; ninety days, 10 months-old mdx mice, p<0.0001, FIG. 13) | neutrophil influx in the diaphragm muscle ([2]; thirty days, 3 months-old mdx mice, p<0.0001, FIG. 12A) | macrophage influx in the diaphragm muscle ([2]; thirty days, 3 months-old mdx mice, p<0.0001, FIG. 12B) | reactive oxygen species in the diaphragm muscle ([2]; thirty days, 3 months-old mdx mice, p<0.0001, FIG. 12C) | fibrosis (picrosirius red staining) in the diaphragm muscle ([2]; thirty days, 3 months-old mdx mice, p<0.0001, FIG. 12D) | MAO-B activity in heart and muscle tissue ([3]; 24-hour time point) | MAO-B activity in heart and muscle tissue ([3]; various doses, 4 hours after administration) | muscle MAO-B activity ([3]; mdx mice (C57BL/10ScSn-Dmdmdx/J), oral, FIG. 10) |
| --- | --- | --- | --- | --- | --- | --- | --- | --- | --- |
| NC/C(=C\F)C1Cc2ccccc2O1 (single isomer, unassigned; (-)) [PXS-5131, (−)-(E)-2-(2,3-Dihydrobenzofuran-2-Yl)-3-Fluoroprop-2-En-1-Amine Hydrochloride] | greater than 24 hours | – | – | – | – | – | – | – | – |
| N#Cc1ccc(OC/C(=C/F)CN)cc1 [Compound 1, (E)-4-((2-(aminomethyl)-3-fluoroallyl)oxy) benzonitrile] | – | significantly reduces | significantly reduces | significantly reduces | significantly reduces | significantly reduces | inhibition of the enzyme activity is still evident | dose-related reduction | completely inhibits |
